Calls of active or inactive are those of the source. No cut-off for these calls is given here.
How the values were obtained:
[1] = Drug uptake in male ICR mouse spleen at 4 mg/ml, TOP measured after 12 hrs by LC-MS/MS analysis; format: ADME, tissue-based; details: in vivo, topical_or_ocular
[2] = Ratio of drug concentration in male ICR mouse skin to heart at 4 mg/ml, TOP measured after 2 hrs by LC-MS/MS analysis; format: ADME, tissue-based; details: in vivo, topical_or_ocular
[3] = Cmax in male ICR mouse skin at 4 mg/ml, TOP measured after 12 hrs by LC-MS/MS analysis; format: ADME, tissue-based, Skin of body; details: topical or ocular
[4] = target: T1, Protein cereblon/Androgen receptor (Homo sapiens, UniProt P10275+Q96SW2); test: PROTAC activity at CRBN/AR in human dermal papilla cells assessed as decrease in AR protein level at 250 to 1000 nM preincubated with testosterone for 24 hrs followed by compound addition and measured after 48 hrs by Western blot analysis; format: cell-based; details: Human dermal papilla cell, dose 250-1000 nM
T1 sequence (P10275 whole entry, looked up): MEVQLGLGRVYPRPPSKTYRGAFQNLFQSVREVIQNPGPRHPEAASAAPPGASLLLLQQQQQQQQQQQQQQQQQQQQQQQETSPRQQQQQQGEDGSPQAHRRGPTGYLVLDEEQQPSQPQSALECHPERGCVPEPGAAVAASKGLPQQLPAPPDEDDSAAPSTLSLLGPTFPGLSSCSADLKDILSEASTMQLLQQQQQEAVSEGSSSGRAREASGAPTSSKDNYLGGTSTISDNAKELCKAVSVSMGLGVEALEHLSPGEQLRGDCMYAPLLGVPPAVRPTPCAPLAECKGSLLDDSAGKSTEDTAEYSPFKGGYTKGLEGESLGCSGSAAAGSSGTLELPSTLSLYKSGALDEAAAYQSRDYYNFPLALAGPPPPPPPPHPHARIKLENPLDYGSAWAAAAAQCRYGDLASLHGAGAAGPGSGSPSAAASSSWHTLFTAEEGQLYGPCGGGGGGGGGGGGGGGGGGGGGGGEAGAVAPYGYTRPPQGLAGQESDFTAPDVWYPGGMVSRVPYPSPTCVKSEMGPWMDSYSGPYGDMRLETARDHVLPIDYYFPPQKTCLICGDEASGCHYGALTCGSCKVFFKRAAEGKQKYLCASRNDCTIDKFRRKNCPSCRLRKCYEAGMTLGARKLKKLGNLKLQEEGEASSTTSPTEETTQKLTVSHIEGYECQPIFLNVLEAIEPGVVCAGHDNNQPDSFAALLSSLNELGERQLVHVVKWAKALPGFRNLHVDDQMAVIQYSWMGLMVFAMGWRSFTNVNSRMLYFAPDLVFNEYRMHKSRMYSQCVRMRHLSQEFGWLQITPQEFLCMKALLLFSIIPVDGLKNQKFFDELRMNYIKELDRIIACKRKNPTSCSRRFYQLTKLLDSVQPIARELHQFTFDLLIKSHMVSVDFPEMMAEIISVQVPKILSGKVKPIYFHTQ
T1 sequence (Q96SW2 whole entry, looked up): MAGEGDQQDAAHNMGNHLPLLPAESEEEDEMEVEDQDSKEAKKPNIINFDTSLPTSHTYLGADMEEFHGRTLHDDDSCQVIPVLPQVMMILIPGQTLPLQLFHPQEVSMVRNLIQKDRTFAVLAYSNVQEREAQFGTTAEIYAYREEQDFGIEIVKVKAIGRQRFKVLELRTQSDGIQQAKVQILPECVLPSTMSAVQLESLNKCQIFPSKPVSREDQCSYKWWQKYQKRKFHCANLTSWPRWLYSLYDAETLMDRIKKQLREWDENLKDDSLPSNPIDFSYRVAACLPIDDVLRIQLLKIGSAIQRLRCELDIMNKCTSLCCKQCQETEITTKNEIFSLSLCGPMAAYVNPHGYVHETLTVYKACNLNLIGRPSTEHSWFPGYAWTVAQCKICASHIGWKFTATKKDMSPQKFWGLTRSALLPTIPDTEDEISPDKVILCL

Mus musculus [5] = test: Hair regeneration efficacy in testosterone induced male C57BL/6 mouse androgenetic alopecia model at 0.4 %, TOP administered once daily for 14 days and measured after 21 days with co-administration of 0.2% testosterone for 28 days relative to minoxidil by photographic analysis; format: functional; details: time 14 day
[6] = Ratio of drug concentration in male ICR mouse skin to liver at 4 mg/ml, TOP measured after 12 hrs by LC-MS/MS analysis; format: ADME, tissue-based; details: in vivo, topical_or_ocular
[7] = target: T2, Protein cereblon/Androgen receptor (Mus musculus) (UniProt P19091+Q8C7D2); test: In vivo PROTAC activity at CRBN/AR in testosterone induced male C57BL/6 mouse androgenetic alopecia model assessed as decrease in AR protein level in skin at 0.4 % TOP administered once daily for 14 days with co-administration of 0.2% testosterone for 28 days by Western blot analysis relative to control; format: functional, organism-based; set-up: scale not given: the % may be the effect or the level left; details: time 14.0 day
T2 sequence (P19091 whole entry, looked up): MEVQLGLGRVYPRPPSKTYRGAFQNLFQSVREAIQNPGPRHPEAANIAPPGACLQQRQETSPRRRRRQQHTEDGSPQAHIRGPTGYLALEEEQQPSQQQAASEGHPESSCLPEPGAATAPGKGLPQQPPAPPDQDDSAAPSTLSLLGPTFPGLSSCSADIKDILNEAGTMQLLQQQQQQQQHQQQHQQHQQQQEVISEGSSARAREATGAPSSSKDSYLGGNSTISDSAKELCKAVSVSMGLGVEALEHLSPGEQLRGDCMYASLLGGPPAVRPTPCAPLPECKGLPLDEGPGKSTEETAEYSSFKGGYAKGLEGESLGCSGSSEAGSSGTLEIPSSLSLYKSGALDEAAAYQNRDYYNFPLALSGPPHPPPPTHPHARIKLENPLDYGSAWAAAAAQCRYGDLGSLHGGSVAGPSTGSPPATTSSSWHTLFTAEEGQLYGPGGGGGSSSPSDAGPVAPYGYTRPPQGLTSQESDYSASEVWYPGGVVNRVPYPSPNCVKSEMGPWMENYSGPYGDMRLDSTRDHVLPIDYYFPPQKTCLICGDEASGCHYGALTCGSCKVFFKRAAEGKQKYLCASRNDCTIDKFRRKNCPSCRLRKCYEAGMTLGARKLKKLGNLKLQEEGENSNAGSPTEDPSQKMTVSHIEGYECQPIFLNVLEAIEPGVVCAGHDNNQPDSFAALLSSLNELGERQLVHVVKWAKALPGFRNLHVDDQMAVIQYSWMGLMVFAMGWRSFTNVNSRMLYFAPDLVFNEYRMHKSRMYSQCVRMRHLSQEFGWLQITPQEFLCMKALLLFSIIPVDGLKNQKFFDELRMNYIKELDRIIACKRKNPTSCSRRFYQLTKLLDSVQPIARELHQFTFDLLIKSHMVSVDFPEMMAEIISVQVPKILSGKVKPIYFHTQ
T2 sequence (Q8C7D2 whole entry, looked up): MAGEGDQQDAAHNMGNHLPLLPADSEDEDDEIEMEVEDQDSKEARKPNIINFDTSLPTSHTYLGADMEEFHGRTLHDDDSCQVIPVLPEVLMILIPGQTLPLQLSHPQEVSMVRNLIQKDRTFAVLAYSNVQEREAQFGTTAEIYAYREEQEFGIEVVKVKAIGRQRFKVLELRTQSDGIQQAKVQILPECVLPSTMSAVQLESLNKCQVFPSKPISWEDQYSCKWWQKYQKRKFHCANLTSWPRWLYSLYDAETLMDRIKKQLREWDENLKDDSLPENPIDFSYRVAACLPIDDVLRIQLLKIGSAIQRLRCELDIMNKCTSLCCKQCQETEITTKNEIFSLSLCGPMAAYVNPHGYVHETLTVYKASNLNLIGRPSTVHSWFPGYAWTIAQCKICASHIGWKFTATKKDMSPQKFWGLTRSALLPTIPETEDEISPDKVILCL

[8] = Ratio of drug concentration in male ICR mouse skin to liver at 4 mg/ml, TOP measured after 4 hrs by LC-MS/MS analysis; format: ADME, tissue-based; details: in vivo, topical_or_ocular
Mus musculus [9] = test: Hair regeneration efficacy in testosterone induced male C57BL/6 mouse androgenetic alopecia model assessed as increase in hair cycle score at 0.4 %, TOP administered once daily for 14 days with co-administration of 0.2% testosterone for 28 days; format: functional, organism-based; details: time 14.0 day
[10] = Ratio of drug concentration in male ICR mouse skin to plasma at 4 mg/ml, TOP measured after 8 hrs by LC-MS/MS analysis; format: ADME, cell-free; details: other tissue, topical_or_ocular
Mus musculus [11] = test: Hair regeneration efficacy in testosterone induced male C57BL/6 mouse androgenetic alopecia model at 0.1 to 0.4 %, TOP administered once daily for 14 days and measured after 21 days with co-administration of 0.2% testosterone for 28 days by photographic analysis; format: functional, organism-based; details: dose 0.1-0.4 %, time 14.0 day
[12] = target: T1, Protein cereblon/Androgen receptor; test: PROTAC activity at CRBN/AR in human dermal papilla cells assessed as increase in beta-catenin protein level at 250 to 1000 nM preincubated with testosterone for 24 hrs followed by compound addition and measured after 48 hrs by Western blot analysis; format: cell-based; details: Human dermal papilla cell, dose 250-1000 nM
[13] = Ratio of drug concentration in male ICR mouse skin to lungs at 4 mg/ml, TOP measured after 2 hrs by LC-MS/MS analysis; format: ADME, tissue-based, Skin/Lung; details: in vivo, topical_or_ocular
[14] = target: T2, Protein cereblon/Androgen receptor (Mus musculus); test: In vivo PROTAC activity at CRBN/AR in testosterone induced male C57BL/6 mouse androgenetic alopecia model assessed as decrease in AR protein level in skin at 0.1 to 0.4 % TOP administered once daily for 14 days with co-administration of 0.2% testosterone for 28 days by Western blot analysis; format: functional, organism-based; details: dose 0.1-0.4 %, time 14.0 day
Mus musculus [15] = test: Hair regeneration efficacy in testosterone induced male C57BL/6 mouse androgenetic alopecia model assessed as entry of hair follicles to anagen phase by measuring high density of enlarged hair bulbs in subcutaneous tissue at 0.1 %, TOP administered once daily for 14 days with co-administration of 0.2% testosterone for 28 days by H and E staining based analysis; format: functional, organism-based; details: time 14.0 day
[16] = target: T1, Protein cereblon/Androgen receptor; test: PROTAC activity at CRBN/AR in human dermal papilla cells assessed as induction of AR degradation at 500 nM in presence of warhead of compound by Western blot analysis; format: cell-based; details: Human dermal papilla cell
[17] = Ratio of drug concentration in male ICR mouse skin to plasma at 4 mg/ml, TOP measured after 4 hrs by LC-MS/MS analysis; format: ADME, cell-free; details: other tissue, topical_or_ocular
[18] = Drug uptake in male ICR mouse lung at 4 mg/ml, TOP measured after 12 hrs by LC-MS/MS analysis; format: ADME, tissue-based; details: in vivo, topical_or_ocular
[19] = Ratio of drug concentration in male ICR mouse skin to liver at 4 mg/ml, TOP measured after 8 hrs by LC-MS/MS analysis; format: ADME, tissue-based; details: in vivo, topical_or_ocular
Mus musculus [20] = test: Hair regeneration efficacy in testosterone induced male C57BL/6 mouse androgenetic alopecia model assessed as well formed stratum corneum in hair at 0.4 %, TOP administered once daily for 14 days with co-administration of 0.2% testosterone and measured after 28 days by SEM analysis; format: functional, organism-based; details: time 28.0 day
[21] = target: T1, Protein cereblon/Androgen receptor; test: PROTAC activity at CRBN/AR in human dermal papilla cells assessed as decrease in TGF-beta1 expression level at 250 to 1000 nM preincubated with testosterone for 24 hrs followed by compound addition and measured after 48 hrs by Western blot analysis; format: cell-based; details: Human dermal papilla cell, dose 250-1000 nM
[22] = Ratio of drug concentration in male ICR mouse skin to plasma at 4 mg/ml, TOP measured after 0.5 hrs by LC-MS/MS analysis; format: ADME, cell-free; details: topical or ocular
[23] = Ratio of drug concentration in male ICR mouse skin to kidney at 4 mg/ml, TOP measured after 12 hrs by LC-MS/MS analysis; format: ADME, tissue-based; details: in vivo, topical_or_ocular
[24] = Cmax in male ICR mouse plasma at 4 mg/ml, TOP measured after 12 hrs by LC-MS/MS analysis; format: ADME, cell-free; details: topical or ocular
[25] = target: T2, Protein cereblon/Androgen receptor (Mus musculus); test: In vivo PROTAC activity at CRBN/AR in testosterone induced male C57BL/6 mouse androgenetic alopecia model assessed as decrease in TGF-beta expression level in skin at 0.4 % TOP administered once daily for 14 days with co-administration of 0.2% testosterone for 28 days by DAPI staining based immunofluorescence analysis; format: functional, organism-based; details: time 14.0 day
[26] = target: T1, Protein cereblon/Androgen receptor; test: PROTAC activity at CRBN/AR in human dermal papilla cells assessed as induction of AR degradation at 500 nM in presence of pomalidomide by Western blot analysis; format: cell-based; details: Human dermal papilla cell
[27] = Ratio of drug concentration in male ICR mouse skin to spleen at 4 mg/ml, TOP measured after 2 hrs by LC-MS/MS analysis; format: ADME, tissue-based; details: in vivo, topical_or_ocular
Mus musculus [28] = test: Hair regeneration efficacy in testosterone induced male C57BL/6 mouse androgenetic alopecia model assessed as increase in Ki67 expression in skin at 0.1 % TOP administered once daily for 14 days with co-administration of 0.2% testosterone for 28 days by DAPI staining based immunofluorescence analysis; format: functional, organism-based; details: time 14.0 day
[29] = target: T1, Protein cereblon/Androgen receptor; test: PROTAC activity at CRBN/AR in human dermal papilla cell assessed as induction of AR degradation at 500 nM by Western blot analysis; format: cell-based; details: time 2-24 hrs
[30] = Ratio of drug concentration in male ICR mouse skin to kidney at 4 mg/ml, TOP measured after 4 hrs by LC-MS/MS analysis; format: ADME, tissue-based; details: in vivo, topical_or_ocular
[31] = Ratio of drug concentration in male ICR mouse skin to heart at 4 mg/ml, TOP measured after 0.25 hrs by LC-MS/MS analysis; format: ADME, tissue-based; details: in vivo, topical_or_ocular
[32] = Ratio of drug concentration in male ICR mouse skin to plasma at 4 mg/ml, TOP measured after 12 hrs by LC-MS/MS analysis; format: ADME, cell-free; details: other tissue, topical_or_ocular

## N#Cc1ccc(O[C@H]2CC[C@H](NC(=O)c3ccc(C4CCN(CC5CCCN(c6ccc(C(=O)NC7CCC(=O)NC7=O)cc6)C5)CC4)cc3)CC2)cc1Cl (some centres not stated)
[1]
  Drug uptake: Active
[2]
  Ratio: 638.59
[3]
  Cmax: 86700 ng/g
[4]
  Activity: Active
Mus musculus [5]
  Activity: 100%
[6]
  Ratio: 173.24
[7]
  Activity: > 50%
[8]
  Ratio: 629.99
Mus musculus [9]
  Activity: Active
[10]
  Ratio: 2610.82
Mus musculus [11]
  Activity: Active
[12]
  Activity: Active
[13]
  Ratio: 198.98
[14]
  Activity: Active
Mus musculus [15]
  Activity: Active; Less Effective Compared To High Dose Compound Group And Minoxidil Group
[16]
  Activity: inactive
[17]
  Ratio: 1873.84
[18]
  Drug uptake: Active
[19]
  Ratio: 196.27
Mus musculus [20]
  Activity: Active
[21]
  Activity: Active
[22]
  Kp at 0.5 h: 129
[23]
  Ratio: 101.26
[24]
  Cmax: 708 ng/mL
[25]
  Activity: Active
[26]
  Activity: inactive
[27]
  Ratio: 450.95
Mus musculus [28]
  Activity: Active; Moderate Increase Observed Compared To Model Group
[29]
  Activity: Time-dependent-effect
[30]
  Ratio: 285.69
[31]
  Ratio: 333.81
[32]
  Ratio: 1736.28

Source: ChEMBL document CHEMBL6078684, “Discovery of a Novel Non-invasive AR PROTAC Degrader for the Topical Treatment of Androgenetic Alopecia” (J Med Chem, 2024)
